Assay results from patent publication US11407717B2, “Benzimidazole derivatives and use thereof as IDH1 inhibitors” (KPC PHARMACEUTICALS, INC., priority 2018, dated 2022).
Where two headings read alike, the source gives them in different places.

Experiments:
[1] = system: U87MG-IDH1-R132H cell strain; test: IDH1 cytological activity test, 2HG content in cell culture supernatant by LC-MS; type: cell-based; details: Homo sapiens, U-87 MG, 72 h; 2-HG in supernatant, 3 days incubation
Experimental: In this study, the compound was incubated with the IDH1 mutant cell line, and the 2HG content in the cell culture supernatant was detected by LC-MS to determine the inhibitory activity of the compound on the IDH1 mutant. IDH1 catalyzes the […] of isocitrate to α-ketoglutarate (α-KG) in organisms, and the IDH1 mutant further catalyzes the reduction of α-KG to 2-hydroxyglutarate (2HG). The U87MG-IDH1-R132H cell strain is a stable transfected cell strain that can stably express IDH1-R132H mutant, obtained via screening by transfecting U87MG cells with IDH1-R132H, and the HT1080 cell strain contains an endogenous IDH1-R132C mutant. 1) The compound was diluted 3-fold with DMSO and then added to the cell culture plate, at a total of 10 concentrations, double duplicate holes for each concentration. The negative control well contains only DMSO, and the positive control well contained BAY1436032 at a final concentration of 5 μM. The final concentration of DMSO in all wells was 0.5%. 2) The IDH1 mutant cell line was seeded into a cell culture plate containing the compound at a density of 40,000 cells/well. The cells were incubated with the compound in a incubator at 37° C., 5% CO2 for 3 days. […]

[2] = biological target: IDH1(R132H) (Homo sapiens, UniProt O75874, R132H); test: IDH1 in vitro enzyme activity test (IDH1 R132H); type: biochemical; details: 1500 μM α-KG + 15 μM NADPH
Sequence of IDH1(R132H) (O75874 whole entry R132H): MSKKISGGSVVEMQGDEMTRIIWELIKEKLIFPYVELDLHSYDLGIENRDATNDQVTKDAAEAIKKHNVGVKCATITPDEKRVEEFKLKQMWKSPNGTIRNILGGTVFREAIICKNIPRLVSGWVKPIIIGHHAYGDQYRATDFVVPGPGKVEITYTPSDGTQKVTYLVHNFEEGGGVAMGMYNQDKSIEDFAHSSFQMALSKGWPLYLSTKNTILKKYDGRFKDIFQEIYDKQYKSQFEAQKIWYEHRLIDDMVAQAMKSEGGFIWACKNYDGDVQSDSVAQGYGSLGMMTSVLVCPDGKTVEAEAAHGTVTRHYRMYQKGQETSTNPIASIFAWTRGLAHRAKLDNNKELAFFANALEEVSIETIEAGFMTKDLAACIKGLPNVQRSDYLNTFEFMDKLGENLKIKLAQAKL
Experimental: (§1) The IDH1 mutant catalyzes the NADPH-dependent reduction of α-KG (α-ketoglutarate) to 2-HG (2-hydroxyglutarate), and the consumed NADPH can be read by fluorescence.
(§2) Basic reaction buffer: 50 mM KH2PO4, pH 7.5, 10 mM MgCl2, 10% glycerol, 150 mM NaCl, 0.05% BSA (bovine serum albumin), 2 mM b-ME (2-mercaptoethanol), 0.003% Brij35 (polyethylene glycol lauryl ether)
(§3) Substrates and cofactors: • IDH1 wt (wild type): 65 μM isocitrate+50 μM NADP • IDH1(R132H): 1500 μM α-KG+15 μM NADPH • IDH1(R132C): 500 μM α-KG+15 μM NADPH
(§4) 1.33× enzyme (no enzyme in the control well), buffer, and NADP or NADPH (control well) were added into the wells of the reaction plate. The test compound was dissolved in 100% DMSO and then added to the enzyme mixture (Echo550, nanoliter level), and incubated for 60 minutes after simple centrifugation. A mixture of 4× substrate and cofactor were added to start the reaction. After simple centrifugation, the plate was incubated under shaking at room temperature for 45 minutes. A mixture of 3× lipoamide dehydrogenase and Resazurin was prepared, added to the reaction solution to test the amount of NADPH generated or remaining, and incubated at room temperature for 10 minutes after simple centrifugation. Multifunctional microplate reader Envision was used to measure (Ex/Em=535/590 nm).

[3] = biological target: IDH1 wt (wild type) (Homo sapiens, UniProt O75874); test: IDH1 in vitro enzyme activity test (IDH1 wild type); type: biochemical; details: 65 μM isocitrate + 50 μM NADP
Sequence of IDH1 wt (wild type) (O75874 whole entry): as the sequence (O75874 whole entry R132H) above, with H132R counted along it
Experimental: as §1, §2, §3, §4

[4] = biological target: IDH1(R132C) (Homo sapiens, UniProt O75874, R132C); test: IDH1 in vitro enzyme activity test (IDH1 R132C); type: biochemical; details: 500 μM α-KG + 15 μM NADPH
Sequence of IDH1(R132C) (O75874 whole entry R132C): as the sequence (O75874 whole entry R132H) above, with H132C counted along it
Experimental: as §1, §2, §3, §4

[5] = Evaluation of pharmacokinetics in mice; type: in vivo, CD-1 mice; details: for AUC(0-t): read-out: Area under curve AUC0-last
Experimental: 1) Experimental drug: Example 6;
2) Experimental animals: 8 male CD-1 mice aged 7-10 weeks, divided into 2 groups, 4 in each group;
3) Drug preparation: for the tail vein injection group, an appropriate amount of the drug was weighted, and dissolved in a mixed solvent of DMSO: 20% hydroxypropyl betacyclodextrin (HPbCD)=10:90 to prepare a 0.5 mg/mL solution; for the intragastric administration group, an appropriate amount of the drug was weighted, and dissolved in DMSO: polyoxyethylene castor oil EL (Cremophor EL):5% sulfobutyl cyclodextrin (Captisol)=5:10:85 to prepare a suspension.
Animals in group 1 were given a single injection of the drug at a dose of 1 mg/kg and a concentration of 0.5 mg/mL via tail vein, and animals in group 2 were given a compound at a dose of 20 mg/kg and a concentration of 2 mg/mL via gavage. Plasma samples were cross-collected from the animals at 0.0833 (tail vein injection group only), 0.25, 0.5, 1, 2, 4, 6, 8 and 24 hours after administration. The LC-MS/MS method was used to determine the drug concentration in the plasma sample, and the kinetic parameters of the tested drug are shown in Table 4: […]

Structure (SMILES): C[C@H](c1ccccc1)n1c(Nc2ccc(OC(F)(F)F)cc2)nc2cc(CCC(=O)O)ccc21 [Example 1]
- IC50 [1]: 92.8 nM
- IC50 [2]: 7.9 nM
- IC50 [3]: > 10000 nM
- IC50 [4]: 102 nM

Structure (SMILES): C[C@@H](c1ccccc1)n1c(Nc2ccc(OC(F)(F)F)cc2)nc2cc(CCC(=O)O)ccc21 [Example 2]
- IC50 [2]: 464 nM

Structure (SMILES): C[C@H](c1ccc(Cl)cc1)n1c(Nc2ccc(OC(F)(F)F)cc2)nc2cc(CCC(=O)O)ccc21 [Example 3]
- IC50 [2]: 320 nM

Structure (SMILES): C[C@H](c1ccc(F)cc1)n1c(Nc2ccc(OC(F)(F)F)cc2)nc2cc(CCC(=O)O)ccc21 [Example 4]
- IC50 [2]: 126 nM

Structure (SMILES): CC[C@H](c1ccccc1)n1c(Nc2ccc(OC(F)(F)F)cc2)nc2cc(CCC(=O)O)ccc21 [Example 5]
- IC50 [2]: 89.5 nM

Structure (SMILES): O=C(O)CCc1ccc2c(c1)nc(Nc1ccc(OC(F)(F)F)cc1)n2[C@@H]1CCCc2ccccc21 [Example 6]
- IC50 [1]: 38.2 nM
- pharmacokinetic properties in mice (in words) ([5]; mice): good pharmacokinetic properties
- AUC(0-t) ([5]; mouse, iv, male CD-1 mice, tail vein injection, 1 mg/kg, plasma): 15.5 µM·h
- C0 ([5]; mouse, iv, male CD-1 mice, tail vein injection, 1 mg/kg, plasma, read-out: Initial concentration C0): 3.54 µM
- clearance ([5]; mouse, plasma, iv, male CD-1 mice, tail vein injection, 1 mg/kg, read-out: Clearance Cl): 2.17 mL/min/kg
- half-life ([5]; mouse, plasma, iv, male CD-1 mice, tail vein injection, 1 mg/kg, read-out: Half-life T1/2 (converted)): 2.9 h
- Vd ([5]; mouse, plasma, iv, male CD-1 mice, tail vein injection, 1 mg/kg, read-out: Volume of distribution Vd): 0.69 L/kg
- bioavailability ([5]; mouse, plasma, po, male CD-1 mice, intragastric 20 mg/kg vs tail vein 1 mg/kg, read-out: Bioavailability F): 99.1%
- Tmax ([5]; mouse, plasma, po, male CD-1 mice, intragastric administration, 20 mg/kg, read-out: Time of highest concentration T1/2 (converted)): 1 h
- AUC(0-t) ([5]; mouse, po, male CD-1 mice, intragastric administration, 20 mg/kg, plasma): 307 µM·h
- Cmax ([5]; mouse, po, male CD-1 mice, intragastric administration, 20 mg/kg, plasma, read-out: Highest concentration Cmax): 33.4 µM
- IC50 [2]: 3.94 nM
- IC50 [3]: > 10000 nM
- IC50 [4]: 12.8 nM

Structure (SMILES): C[C@H](c1cccc(Cl)c1)n1c(Nc2ccc(OC(F)(F)F)cc2)nc2cc(CCC(=O)O)ccc21 [Example 7]
- IC50 [2]: 121 nM

Structure (SMILES): O=C(O)CCc1ccc2c(c1)nc(Nc1ccc(OC(F)(F)F)cc1)n2[C@@H]1CCc2ccccc21 [Example 8]
- IC50 [2]: 2.88 nM

Structure (SMILES): O=C(O)CCc1ccc2c(c1)nc(Nc1ccc(OC(F)(F)F)cc1)n2C(c1ccccc1)c1ccccc1 [Example 9]
- IC50 [2]: 21.9 nM

Structure (SMILES): COc1ccccc1[C@@H](C)n1c(Nc2ccc(OC(F)(F)F)cc2)nc2cc(CCC(=O)O)ccc21 [Example 10]
- IC50 [2]: 344 nM

Structure (SMILES): CC(C)(C)[C@H](c1ccccc1)n1c(Nc2ccc(OC(F)(F)F)cc2)nc2cc(CCC(=O)O)ccc21 [Example 11]
- IC50 [2]: 24.5 nM

Structure (SMILES): O=C(O)CCc1ccc2c(c1)nc(Nc1ccc(OC(F)(F)F)cc1)n2[C@@H](c1ccccc1)C1CC1 [Example 12]
- IC50 [2]: 15.7 nM
